In patent US20190075796A1, “Increased walnut yields with brassinosteroid application” (priority 2017, published 2019):

Key:
walnut cv. Serr = test: Foliar spray field trial in a walnut orchard, cv. Serr: fruit set and nut weights; type: in vivo; conditions: all treatments of HBR except HBR 0.4 ppm
Method: (§1) Testing was conducted in two contiguous walnut orchards located in Pirque, Metropolitan Region of Chile. The first orchard is of cultivar Serr, planted at 11×11 m and 20 years old. The second orchard is of cultivar Chandler, planted at 7×6 m and 5 years old. In the 2014/2015 season yield of cultivar Serr was 4,300 kilograms of walnuts in shells per hectare, and in cultivar Chandler the yield was 2,300 kilograms of walnuts in shells per hectare.
During the 2014/2015 season, four experimental and one control treatments were applied to the Pirque orchard. Treatments were foliar sprays with solutions of Homobrassinolide (HBR) at 0.4, 4.0 and 20 ppm, and HBR 4.0 ppm+CPPU 10 ppm. Control was water. Treatment of each cultivar took place 10 days after said cultivar reached approximately 10% pistillate flower receptive. Each tree was sprayed with approximately 250 ml of solution. At that volume the sprayed leaves and branches are wetted and excess solution is dripping off the tree. Applications were made to small branches having 2 to 4 terminal buds with pistillate flowers, equivalent to 3 to 12 potential fruits per replication. The experimental design was randomized blocks with 10 replications. […]
The measurement of fruit set was determined by the difference between the number of fruit harvested and the number of flowers/fruitlets sprayed in late flowering. […]

walnut cv. Chandler = test: Foliar spray field trial in a walnut orchard, cv. Chandler: fruit set and nut weights; type: in vivo
Method: as §1
During the 2014/2015 season, four experimental and one control treatments were applied to the Pirque orchard. Treatments were foliar sprays with solutions of Homobrassinolide (HBR) at 0.4, 4.0 and 20 ppm, and HBR 4.0 ppm+CPPU 10 ppm. Control was water. Treatment of each cultivar took place 10 days after said cultivar reached approximately 10% pistillate flower receptive. Each tree was sprayed with approximately 250 ml of solution. At that volume the sprayed leaves and branches are wetted and excess solution is dripping off the tree. Applications were made to small branches having 2 to 4 terminal buds with pistillate flowers, equivalent to 3 to 12 potential fruits per replication. The experimental design was randomized blocks with 10 replications. Ten trees per cultivar received treatment and all treatments were applied to separate spray targets of each tree. The spray targets included pistillate flowers, catkins and leaves.
Walnut flowering of both cultivars in the season was prolonged and irregular, extending for 2 weeks in each cultivar. Bloom was mainly protandrous with catkins fall of 20-30% during the pistillate flowering period for both cultivars. The vegetative growth was normal. When flowering of cv. Serr reached 10 to 20% of receptivity, Aminoethoxy vinyl-glycine was applied at a concentration of 125 ppm to all conditions to delay ripening.
The measurement of fruit set was determined by the difference between the number of fruit harvested and the number of flowers/fruitlets sprayed in late flowering. After harvest, the nuts from the experiment were dried in laboratory at a temperature of 35° C. for 12 hours, and then the nut shell was removed, measuring the weight of both (in shell and shelled) independently.

pollen of cv. Chandler = test: In vitro pollen germination and pollen tube growth; type: cell-based, walnut; conditions: 20° C.
Method: An in vitro experiment was done to study the effects of the same treatments as Study 1 on pollen of cv. Chandler. The growing media used for pollen germination and tube growth was prepared in Petri dishes, and consisted of a solution of 10% sucrose and 1% agar in 50 mg per liter boric acid, plus either 0.4 ppm HBR, 4.0 ppm HBR, 20 ppm HBR, or 4.0 ppm HBR+10 pm CPPU. The control solution was distilled water. The experimental design was randomized with 4 replications, using Petri dishes as experimental units. Chandler pollen was sown onto the media with a fine brush, and incubated in a growth chamber for 24 hours at 20° C. Observations of pollen germination were done after 12 hours and pollen tube growth after 24 hours respectively. An Olympus CX31 microscope at 40× was used, and photographs were taken with a ProgRes® C3 camera, using the Capture-Pro computational program. The percentage of germination was determined using the GSA Image Analyzer 3.6.5 program, and the pollen tube length with the Qcad program. FIG. 11 is a representative 20× photomicrograph of germinating Chandler pollen.

Q: Which results are given for CC[C@@H](C(C)C)C(O)C(O)[C@@H](C)[C@H]1CC[C@H]2[C@@H]3COC(=O)[C@H]4C[C@H](O)[C@H](O)C[C@]4(C)[C@H]3CC[C@]12C (stereo in doubt) [HBR, homobrassinolide]?
A: final weight of shelled walnuts versus control (walnut cv. Serr): greater than control; fruit set, increase with respect to the control (walnut cv. Chandler; HBR 0.4 ppm): 6.2%; final weight of walnuts in shell, increase over control (walnut cv. Chandler; HBR 4.0 ppm): 16.9%; fruit set, increase with respect to the control (walnut cv. Chandler; HBR 4.0 ppm): 5.0%; final weight of walnuts in shell, increase over control (walnut cv. Chandler; HBR 20 ppm): 29.6%; fruit set, increase with respect to the control (walnut cv. Chandler; HBR 20 ppm): 13.5%; pollen germination versus control (pollen of cv. Chandler; 0.4 ppm HBR in medium, observed after 12 hours): less than control; pollen germination versus control (pollen of cv. Chandler; 4.0 ppm HBR in medium, observed after 12 hours): similar; pollen tube growth versus control (pollen of cv. Chandler; 4.0 ppm HBR in medium, observed after 24 hours): greater than control; pollen germination (pollen of cv. Chandler; 20 ppm HBR in medium, observed after 12 hours): no germination
